What was measured:
[1] = test system: oxygen-induced retinopathy; settings: OIR mice; UDCA 50 mg/kg, P7-P17; cited from earlier work
[2] = test system: CD4+, CD25+, FoxP3+ Treg cells; settings: responding patients; cited from earlier work
[3] = test system: Experimental autoimmune encephalomyelitis; assay: Experimental autoimmune encephalomyelitis (EAE) clinical score; format: in vivo; settings: female SJL/J mice, by gavage, alone and/or with Copaxone, observed at days 10, 20 and 30; bar graph
Method: (§1) Experimental autoimmune encephalomyelitis was induced in female SJL/J (6-8 weeks old) by injection PLP139-151 peptide (50 μg) emulsified in complete Freund's adjuvant (BD Diagnostics), containing killed Mycobacterium tuberculosis (400 μg/ml) in a volume of (50 μl per area). Animals were randomized to receive by QuadraMune™ by gavage, and/or Copaxone. Mice where observed for symptoms at days 10, 20 and 30.
Clinical scores (0, no symptoms; 1, limp tail; 2, partial paralysis of hind limbs; 3, complete paralysis of hind limbs or partial hind and front limb paralysis; 4, tetraparalysis; 5, moribund; 6, death).
as §1, with “PLP^139-151” for “PLP139-151”, “pterostilbene” for “by QuadraMune™”
as §1, with “sulforaphane” for “by QuadraMune™”, “Mice where observed for symptoms at days 10, 20 and 30.” left out

Treg = settings: in vivo; cited from earlier work
acute pancreatitis = settings: AP mice gavaged with TUDCA; cited from earlier work
osteoblasts = settings: in vitro, cited from earlier work
osteoporosis = settings: OVX mice, vs PBS treatment group, cited from earlier work
IL-6 production = settings: cited from earlier work
[4] = serum, not significantly different

C[C@H](CCC(=O)NCC(=O)O)[C@H]1CC[C@H]2[C@@H]3[C@@H](O)C[C@@H]4C[C@H](O)CC[C@]4(C)[C@H]3CC[C@]12C [GUDCA]
extension of neovascular and avascular areas [1]: no changes

glatiramer acetate
CD4+, CD25+, FoxP3+ Treg cells in peripheral blood and cerebral spinal fluid [2]: increased levels

CC1=CC(=O)C(C(C)C)=CC1=O [thymoquinone]
EAE Score [3]: reduction in EAE Score

C[S+]([O-])CCCCN=C=S (stereo not drawn) [sulforaphane]
EAE Score [3]: reduction in EAE Score

Interferon beta
Treg activity after initiation of therapy (Treg): renormalization of Treg activity

C[C@H](CCC(=O)NCCS(=O)(=O)O)[C@H]1CC[C@H]2[C@@H]3[C@@H](O)C[C@@H]4C[C@H](O)CC[C@]4(C)[C@H]3CC[C@]12C [TUDCA, tauroursodeoxycholic acid]
extension of neovascular and avascular areas [1]: no changes | expression of farnesoid-x-receptor (FXR) and its target gene FGF15 (acute pancreatitis): downregulated | pancreatic and intestinal barrier function injury (acute pancreatitis): mitigated | proliferation and viability of osteoblasts and osteoblast differentiation and mineralization (osteoblasts; 100 nM, 1 μM): significantly increased | detrimental effects of methylprednisolone (methylprednisolone-induced osteoblast apoptosis) (osteoblasts): neutralized | CTX level (osteoporosis; [4]): lower | PINP level (osteoporosis; [4]): higher | percentage bone volume with respect to total bone volume, bone mineral density, distal femur trabeculae (osteoporosis): increased | trabecular structures in the distal femur (micro-CT and histology) (osteoporosis): preserved more trabecular structures | Inflammation and IL-6 production triggered by infection with Brucella abortus (IL-6 production): reduced

Reference: patent US20220193170A1, “Nutraceutical Reduction Prevention and/or Reversion of Multiple Sclerosis” (Therapeutic Solutions International, Inc., priority 2020, published 2022)
